Assay results from patent US4166864A, “Pesticidal unsymmetrical bis-arylcarbamate disulfide compounds” (Union Carbide Corporation, priority 1977, dated 1979).

Key:
Assay type in all cases: in vivo
[1] = test system: house flies (Musca domestica, L.); assay: Fly Bait Test; set-up: key: A: excellent control; B: partial control; C: no control; conditions: 500 ppm in sugar-solution bait, twenty four hours
Protocol: (§1) Suspensions of the test compounds were prepared by dissolving one gram of compound in 50 milliliters of acetone in which had been dissolved 0.1 gram (10 percent of the weight of compound) of an alkylphenoxy polyethoxyethanol surfactant, as an emulsifying or dispersing agent. The resulting solution was mixed into 150 milliliters of water to give roughly 200 milliliters of a suspension containing the compound in finely divided form. The thus-prepared stock suspension contained 0.5 percent by weight of compound. The test concentrations in parts per million by weight employed in the tests described hereinbelow were obtained by appropriate dilutions of the stock suspension with water. The test procedures were as follows:
Four to six day old adult house flies (Musca domestica, L.) reared according to the specifications of the Chemical Specialties Manufacturing Association (Blue Book, McNair-Dorland Co., N.Y. 1954; pages 243-244, 261) under controlled conditions of 80°±5° F. and 50±5 percent relative humidity, were the test insects. The flies were immobilized by anesthetizing with carbon dioxide and twenty five immobilized individuals, males and females, were transferred to a cage consisting of a standard food strainer about five inches in diameter which was inverted over a wrapping-paper-covered surface. The test compounds were formulated by diluting the stock suspension with a 10 percent (by weight) sugar solution to give a suspension containing 500 parts of test compound per million parts of final formulation, by weight. Ten milliliters of the test formulation were added to a souffle cup containing a one-inch square of an absorbent cotton pad. This bait cup was introduced and centered on the blotting paper under the food strainer prior to admitting the anesthetized flies. The caged flies were allowed to feed on the bait for twenty four hours, at a temperature of 80°±5° F. and the relative humidity of 50±5 percent.
(§2) In these tests the pesticidal activity of the compounds against aphid, mite, Southerm Armyworm, Bean Beetle and house fly was rated as follows: […]

[2] = test system: southern armyworm (Prodenia eridania, (Cram.)); assay: Southern Armyworm Leaf Spray Test; set-up: key: A: excellent control; B: partial control; C: no control; conditions: 500 ppm leaf spray, three days
Protocol: as §1
Larvae of the southern arymworm (Prodenia eridania, (Cram.)), reared on Tendergreen bean plants at a temperature of 80°±5° F. and a relative humidity of 50±5 percent, constituted the test insects.
The test compounds were formulated by diluting the stock suspension with water to give a suspension containing 500 parts of test compound per million parts of final formulation. Potted Tendergreen bean plants of standard height and age were placed on a revolving turntable and sprayed with 100-110 milliliters of test compound formulation by use of a DeVilbiss spray gun set at 10 psig air pressure. This application, which lasted 25 seconds, was sufficient to wet plants to run-off. As a control, 100-110 milliliters of a water-acetone-emulsifier solution containing no test compound were also sprayed on infested plants. When dry, the paired leaves were separated and each one was placed in a 9 centimeter Petri dish lined with moistened filter paper. Five randomly selected larvae were introduced into each dish and the dishes were closed. The closed dishes were labeled and held at 80°-85° F. for three days. Although the larvae could easily consume the whole leaf within twenty-four hours, no more food was added. Larvae which were unable to move the length of the body, even upon stimulation by prodding, were considered dead. Percent mortality was recorded for various concentration levels.
as §2

Tomato = assay: Phytotoxicity Test, tomato; set-up: key: 1: no perceptible injury; 2: intermediate degrees of injury based upon the number and extent to which leaves were injured; 3: intermediate degrees of injury based upon the number and extent to which leaves were injured; 4: intermediate degrees of injury based upon the number and extent to which leaves were injured; 5: the plant was dead; conditions: 2500 ppm spray, rated after ten days
Protocol: (§3) Experiments were also conducted to determine the phytoxicity of representative compounds with respect to healthy fresh plants. Solutions of the compounds were prepared as described above to provide a concentration of 2500 parts per million of the test compound. The test plants were sprayed in accordance with the procedure described above for the Mite Foliage Spray Test so as to deliver approximately 100 milliliters of test solution to the leaves of each plant tested. The sprayed plants and controls were set aside for approximately one hour to allow the foliage to dry and were then placed in the greenhouse. After ten days the plants were visually inspected to determine the extent of foliage injury. A rating of 1 indicates no perceptible injury; 5 indicates the plant was dead and ratings of 2, 3 and 4 indicate intermediate degrees of injury based upon the number and extent to which leaves were injured.

Corn = assay: Phytotoxicity Test, corn; set-up: key: 1: no perceptible injury; 2: intermediate degrees of injury based upon the number and extent to which leaves were injured; 3: intermediate degrees of injury based upon the number and extent to which leaves were injured; 4: intermediate degrees of injury based upon the number and extent to which leaves were injured; 5: the plant was dead; conditions: 2500 ppm spray, rated after ten days
Protocol: as §3

Bean = assay: Phytotoxicity Test, bean; set-up: key: 1: no perceptible injury; 2: intermediate degrees of injury based upon the number and extent to which leaves were injured; 3: intermediate degrees of injury based upon the number and extent to which leaves were injured; 4: intermediate degrees of injury based upon the number and extent to which leaves were injured; 5: the plant was dead; conditions: 2500 ppm spray, rated after ten days
Protocol: as §3

Cotton = assay: Phytotoxicity Test, cotton; set-up: key: 1: no perceptible injury; 2: intermediate degrees of injury based upon the number and extent to which leaves were injured; 3: intermediate degrees of injury based upon the number and extent to which leaves were injured; 4: intermediate degrees of injury based upon the number and extent to which leaves were injured; 5: the plant was dead; conditions: 2500 ppm spray, rated after ten days
Protocol: as §3

[3] = test system: two-spotted mite (Tetranychus urticae Koch); assay: Mite Foliage Spray Test; set-up: key: A: excellent control; B: partial control; C: no control; conditions: 500 ppm foliage spray, six days
Protocol: as §1
Adults and nymphal stages of the two-spotted mite (Tetranychus urticae Koch), reared on Tendergreen bean plants at 80±5 percent relative humidity, were the test organisms. Infested leaves from a stock culture were placed on the primary leaves of two bean plants six to eight inches in height, growing in a two-and-a-half inch clay pot. 150-200 Mites, a sufficient number for testing, transferred from the excised leaves to the fresh plants in a period of twenty four hours. Following the twenty four hour transfer period, the excised leaves were removed from the infested plants. The test compounds were formulated by diluting the stock suspension with water to give a suspension containing 500 parts of test compound per million parts of final formulation. The potted plants (one pot per compound) were placed on a revolving turntable and sprayed with 100-110 milliliters of test compound formulation by use of a DeVilbiss spray gun set at 40 psig. air pressure. This application, which lasted 25 seconds, was sufficient to wet the plants to run-off. As a control, 100=110 milliliters of a water solution containing acetone and emulsifier in the same concentrations as the test compound formulation, but containing no test compound, were also sprayed on infested plants. The sprayed plants were held at 80±5 percent relative humidity for six days, after which a mortality count of motile forms was made. Microscopic examination for motile forms was made on the leaves of the test plants. Any individual which was capable of locomotion upon prodding was considered living. […]
as §2

[4] = test system: Mexican bean beetle (Epilachna varivestis, Muls.); assay: Mexican Bean Beetle Leaf Spray Test; set-up: key: A: excellent control; B: partial control; C: no control; conditions: 500 ppm leaf spray, three days
Protocol: as §1
Fourth instar larvae of the Mexican bean beetle (Epilachna varivestis, Muls.), reared on Tendergreen bean plants at a temperature of 80°±5° F. and 50±5 percent relative humidity, were the test insects.
The test compounds were formulated by diluting the stock suspension with water to give a suspension containing 500 parts of test compound per million parts of final formulation. Potted Tendergreen bean plants of standard height and age were placed on a revolving turntable and sprayed with 100-110 milliliters of test compound formulation by use of a DeVilbiss spray gun set at 10 psig air pressure. This application, which lasted 25 seconds, was sufficient to wet plants to run-off. As a control, 100-110 milliliters of a water-acetone-emulsifier solution containing no test compound were also sprayed on infested plants. When dry, the paired leaves were separated and each was placed in a 9 centimeter Petri dish lined with moistened filter paper. Five randomly selected larvae were introduced into each dish, and the dishes were closed. The closed dishes were labeled and held at a temperature of 80°±5° F. for three days. Although the larvae could easily consume the leaf within 24 to 48 hours, no more food was added. Larvae which were unable to move the length of the body, even upon stimulation, were considered dead.
as §2

[5] = test system: bean aphid (Aphis fabae Scop.); assay: Bean Aphid Foliage Spray Test; set-up: key: A: excellent control; B: partial control; C: no control; conditions: 500 ppm foliage spray, 24 hour holding period
Protocol: as §1
Adults and nymphal stages of the bean aphid (Aphis fabae Scop.) reared on potted dwarf nasturtium plants at […] and 50-70 percent relative humidity, constituted the test insects. For testing purposes, the number of aphids per pot was standardized to 100-150 by trimming plants containing excess aphids.
The test compounds were formulated by diluting the stock suspension with water to give a suspension containing 500 parts of test compound per million parts of final formulation.
The potted plants (one pot per compound tested) infested with 100-150 aphids, were placed on a revolving turntable and sprayed with 100-110 milliliters of test compound formulation by use of a DeVilbiss spray gun set at 40 psig. air pressure. This application, which lasted 25 seconds, was sufficient to wet the plants to run-off. As a control, 100-110 milliliters of a water-acetone-emulsifier solution containing no test compound were also sprayed on infested plants. After spraying, the pots were placed on their sides on a sheet of white standard mimeograph paper which had been previously ruled to facilitate counting. Temperature and humidity in the test room during the 24 hour holding period were 65°-70° F. and 50-70 percent, respectively. Aphids which fell onto the paper and were unable to remain standing after being uprighted were considered dead. Aphids remaining on the plants were observed closely for movement and those which were unable to move the length of the body upon stimulation by prodding were considered dead. Percent mortality was recorded for various concentration levels.
as §2

Soybean = assay: Phytotoxicity Test, soybean; set-up: key: 1: no perceptible injury; 2: intermediate degrees of injury based upon the number and extent to which leaves were injured; 3: intermediate degrees of injury based upon the number and extent to which leaves were injured; 4: intermediate degrees of injury based upon the number and extent to which leaves were injured; 5: the plant was dead; conditions: 2500 ppm spray, rated after ten days
Protocol: as §3

| SMILES | Insecticidal activity rating, Housefly [1] | Insecticidal activity rating, Southern Armyworm [2] | Phytotoxicity, Tomato (Tomato) | Phytotoxicity, Corn (Corn) | Phytotoxicity, Bean (Bean) | Phytotoxicity, Cotton (Cotton) | Miticidal activity rating, Mite [3] | Insecticidal activity rating, Mexican Bean Beetle [4] | Insecticidal activity rating, Aphid [5] | Phytotoxicity, Soybean (Soybean) |
| --- | --- | --- | --- | --- | --- | --- | --- | --- | --- | --- |
| CN(SSN(C)C(=O)Oc1cccc2ccccc12)C(=O)Oc1cccc2c1OC(C)(C)C2 | A | A | 1 | 1 | 1 | 1 | C | A | A | 1 |
| CN(SSN(C)C(=O)Oc1ccccc1C1SCCS1)C(=O)Oc1ccc(C(C)(C)C)cc1 | A | C | 1 | 1 | 1 | 1 | C | A | A | 1 |
| CN(SSN(C)C(=O)Oc1cccc2c1OC(C)(C)C2)C(=O)Oc1ccc2c(c1)OCO2 | A | A | 1 | 1 | 1 | 1 | C | A | A | 1 |
| C#CCOc1ccccc1OC(=O)N(C)SSN(C)C(=O)Oc1cccc2c1OC(C)(C)C2 | A | A | 1 | 1 | 1 | 1 | C | A | A | 2 |
| CSc1ccc(OC(=O)N(C)SSN(C)C(=O)Oc2cccc3c2OC(C)(C)C3)cc1C | A | A | 1 | 1 | 1 | 1 | C | A | A | 1 |
| CN(SSN(C)C(=O)Oc1cccc2c1OC(C)(C)C2)C(=O)Oc1cccc(N(C)C)c1 | A | A | 1 | 1 | 1 | 1 | C | A | A | 1 |
| Cc1cc(C)cc(OC(=O)N(C)SSN(C)C(=O)Oc2cccc3c2OC(C)(C)C3)c1 | A | A | 1 | 1 | 1 | 1 | C | A | A | 1 |
